The source of these data is ChEMBL document CHEMBL1201862, “PubChem BioAssay data set” (2004).

The nature of assay [1]: Shn3 3'UTR reporter inhibitors, dose response, cell-based, Clone20 osteoblasts, firefly luciferase, cherry-picked (AID 624132).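 Also: firefly luciferase luminescence from reporter carrying the Shn3 3'UTR in osteoblasts.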 In kind it is functional.
For assay [2], the target named is Protein disulfide-isomerase (Homo sapiens, UniProt P07237). Description: PDI inhibitors, insulin aggregation turbidity, dose response, biochemical, absorbance, cherry-picked samples (AID 602350). The class given is functional.
Assay [3] has as its system BJ. Put plainly: cells. In kind it is functional, cell-based. The settings on record: Homo sapiens.
In assay [4] the target is T1, Replicative DNA helicase DnaB (Mycobacterium tuberculosis, UniProt P9WMR3).
T1 sequence (P9WMR3 whole entry): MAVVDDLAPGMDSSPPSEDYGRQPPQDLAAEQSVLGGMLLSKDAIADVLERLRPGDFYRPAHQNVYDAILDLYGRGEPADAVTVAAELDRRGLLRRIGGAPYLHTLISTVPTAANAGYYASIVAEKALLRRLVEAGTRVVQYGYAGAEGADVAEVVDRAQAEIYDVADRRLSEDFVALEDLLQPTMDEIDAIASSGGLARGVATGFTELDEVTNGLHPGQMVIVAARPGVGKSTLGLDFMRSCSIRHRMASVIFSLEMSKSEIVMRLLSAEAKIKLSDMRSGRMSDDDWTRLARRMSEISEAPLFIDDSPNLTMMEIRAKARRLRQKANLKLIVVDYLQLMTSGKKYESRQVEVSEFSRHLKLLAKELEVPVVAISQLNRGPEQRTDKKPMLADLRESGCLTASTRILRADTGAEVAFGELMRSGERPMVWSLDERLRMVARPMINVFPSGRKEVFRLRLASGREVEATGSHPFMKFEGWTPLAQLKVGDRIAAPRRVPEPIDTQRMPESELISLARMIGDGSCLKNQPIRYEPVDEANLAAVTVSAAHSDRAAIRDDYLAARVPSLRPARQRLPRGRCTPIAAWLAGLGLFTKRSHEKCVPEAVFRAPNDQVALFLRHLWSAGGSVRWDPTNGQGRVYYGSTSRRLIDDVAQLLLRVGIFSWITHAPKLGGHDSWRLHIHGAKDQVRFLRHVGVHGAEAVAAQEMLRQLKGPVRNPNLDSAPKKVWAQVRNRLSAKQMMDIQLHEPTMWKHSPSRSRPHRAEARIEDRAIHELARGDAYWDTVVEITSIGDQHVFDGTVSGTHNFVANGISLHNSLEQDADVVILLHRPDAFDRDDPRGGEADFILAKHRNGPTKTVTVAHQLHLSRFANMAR
Put plainly: DnaB intein splicing inhibitors, dose response, biochemical, cell-free fluorescence (AID 449749). The class given is functional.

For assay [5], the system named is BJ. Put plainly: cytotoxicity toward BJ-TERT fibroblasts, dose response, cell-based, RAS-independent, luminescence (AID 1933). The class given is functional. The following applies: Homo sapiens.
The target of the next assay is T2, Protein RecA (Mycobacterium tuberculosis, UniProt P9WHJ3).
T2 sequence (P9WHJ3 whole entry): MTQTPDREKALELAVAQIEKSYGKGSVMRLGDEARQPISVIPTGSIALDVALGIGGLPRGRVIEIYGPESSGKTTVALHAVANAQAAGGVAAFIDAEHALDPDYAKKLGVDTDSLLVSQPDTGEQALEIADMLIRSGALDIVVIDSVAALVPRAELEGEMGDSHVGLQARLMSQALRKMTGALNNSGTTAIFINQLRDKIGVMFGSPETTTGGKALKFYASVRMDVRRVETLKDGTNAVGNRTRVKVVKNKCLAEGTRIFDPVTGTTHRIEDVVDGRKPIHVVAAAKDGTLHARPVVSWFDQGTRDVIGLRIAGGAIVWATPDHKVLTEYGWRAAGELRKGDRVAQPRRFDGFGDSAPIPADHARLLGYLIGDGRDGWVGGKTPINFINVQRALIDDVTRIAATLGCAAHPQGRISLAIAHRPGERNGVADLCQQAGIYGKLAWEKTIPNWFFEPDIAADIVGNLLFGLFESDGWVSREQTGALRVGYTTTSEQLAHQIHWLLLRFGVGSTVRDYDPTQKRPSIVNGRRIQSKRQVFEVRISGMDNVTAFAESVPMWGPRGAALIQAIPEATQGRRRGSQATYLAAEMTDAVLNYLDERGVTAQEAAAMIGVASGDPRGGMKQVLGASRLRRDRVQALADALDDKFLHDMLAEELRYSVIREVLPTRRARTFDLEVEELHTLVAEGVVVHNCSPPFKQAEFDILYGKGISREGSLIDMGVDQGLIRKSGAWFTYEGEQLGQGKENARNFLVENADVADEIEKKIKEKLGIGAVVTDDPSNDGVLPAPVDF
Put plainly: Fluorescence Cell-Free Homogeneous Dose Retest to Identify Inhibitors of RecA-Intein Splicing Activity. [Related pubchem assays (depositor defined):AID2097, AID2223, AID489010, AID492950]. The class given is functional.

Assay [6] is described as follows: cytotoxicity toward DRD oncogenic fibroblasts, dose response, cell-based, non-viral oncogenic, luminescence (AID 1934). In kind it is functional. The following applies: Homo sapiens.
In assay [7] the test system is BJ. Description: cytotoxicity toward Ras-transformed BJeLR fibroblasts, dose response, cell-based, alamar blue fluorescence, cherrypicked samples (AID 2631).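 Also: confirmatory dose-response assay in RAS-dependent BJ fibroblasts engineered with TERT, LT and ST, with cytotoxicity read by fluorescence.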 The class given is functional. The settings on record: Homo sapiens. For orientation: The colour change of resazurin is a common sign of viable cells or microbes.
In assay [8] the test system is BJ. Put plainly: cytotoxicity toward BJ-TERT-LT-ST fibroblasts, dose response, cell-based, RAS-independent, luminescence (AID 1935).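 Also: BJ fibroblasts immortalized with TERT plus LT and ST oncogenes.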 The class given is functional. The following applies: Homo sapiens.
The target in assay [9] is Photoreceptor-specific nuclear receptor (Homo sapiens, UniProt Q9Y5X4). In kind it is functional, cell-based.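 Also: CHO-S cells with Gal4-NCOR and VP16-NR2E3 two-hybrid luciferase reporter.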

Active and inactive are the calls of the source.

Protein disulfide-isomerase, sequence (P07237 whole entry): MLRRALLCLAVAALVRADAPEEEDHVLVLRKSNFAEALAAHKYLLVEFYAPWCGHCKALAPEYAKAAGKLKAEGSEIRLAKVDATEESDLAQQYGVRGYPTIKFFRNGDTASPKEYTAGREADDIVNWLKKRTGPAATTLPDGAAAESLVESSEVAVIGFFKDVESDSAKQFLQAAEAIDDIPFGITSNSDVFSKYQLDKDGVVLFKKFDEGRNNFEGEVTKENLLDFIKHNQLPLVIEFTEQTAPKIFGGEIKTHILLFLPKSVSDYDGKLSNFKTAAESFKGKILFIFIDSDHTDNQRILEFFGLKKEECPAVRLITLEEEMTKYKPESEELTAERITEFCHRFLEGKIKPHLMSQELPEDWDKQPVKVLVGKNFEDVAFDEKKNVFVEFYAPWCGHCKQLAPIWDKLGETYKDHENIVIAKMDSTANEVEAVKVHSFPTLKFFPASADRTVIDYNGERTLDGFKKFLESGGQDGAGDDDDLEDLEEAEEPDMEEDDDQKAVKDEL
Photoreceptor-specific nuclear receptor, sequence (Q9Y5X4 whole entry, the tested form may be a part): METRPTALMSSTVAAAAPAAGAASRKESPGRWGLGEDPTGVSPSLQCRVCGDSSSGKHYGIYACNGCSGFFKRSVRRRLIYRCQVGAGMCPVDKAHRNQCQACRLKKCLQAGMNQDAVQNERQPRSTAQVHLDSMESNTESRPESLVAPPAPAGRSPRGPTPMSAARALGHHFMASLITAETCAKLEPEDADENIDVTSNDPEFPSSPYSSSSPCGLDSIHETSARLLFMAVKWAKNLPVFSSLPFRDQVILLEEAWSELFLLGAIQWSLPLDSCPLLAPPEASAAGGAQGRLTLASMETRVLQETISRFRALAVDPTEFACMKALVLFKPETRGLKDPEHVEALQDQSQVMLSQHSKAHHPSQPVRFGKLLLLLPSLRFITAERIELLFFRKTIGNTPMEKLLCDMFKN

One may read the AC50 as the concentration at which the activity in the assay is half-maximal. In the case of `COc1ccc2c(CC(=O)OCC(=O)N(C)c3c(N)n(Cc4ccccc4)c(=O)[nH]c3=O)coc2c1`, the figures for the AC50 in assay [1] and in [2] were 21.2 µM (active) and 5.45 µM (active), respectively.

As usually defined, the EC50 is the midpoint of the concentration-response curve. With `COc1cccc(/C=C2\SC(=S)N(CCCC(=O)N(CCO)c3ccccc3)C2=O)c1`, the EC50 is > 150 µM (not active) in the assay with BJ [3]; 3.1 µM (inconclusive) with BJ [5]; 7.22 µM (active) at Protein RecA; 6.07 µM (inconclusive) in assay [6]; > 66.7 µM (inactive) in the assay with BJ [7]; > 75 µM (inconclusive) in the assay with BJ [8]. For the same compound, the AC50 in assay [4] is 41.7 µM (active).

For the compound `CCOC(=O)C1(CCOc2ccccc2)CCN(Cc2cc(OC)c(O)cc2Cl)CC1`, in assay [2], the AC50 is 6.03 µM (active).

With `Cc1c(O)ccc2c(CN3CCN(C/C=C/c4ccccc4)CC3)cc(=O)oc12`, in assay [2], the AC50 is 19.5 µM (active).

Broadly, the IC50 is the midpoint of a concentration-inhibition curve. Consider `NC(=O)c1nn(-c2ccccc2)nc1NC(=O)CSc1nnnn1-c1ccc(Cl)cc1`, for which the 50% inhibitory concentration (IC50) in assay [9] was 2.27 µM (active).

In the case of `Cc1cc(O)cc2c1C1CCC3(C)C(=O)CCC3C1C=C2` (stereo not drawn), the AC50 in assay [2] is 19.5 µM (active).
